Reference: patent US12590071B2, “Hydrazone derivative in which terminal amine group is substituted with aryl group or heteroaryl group, and use thereof” (KOREA INSTITUTE OF SCIENCE AND TECHNOLOGY, priority 2018, dated 2026)

How the values were obtained:
[1] = Liver microsomal stability (mouse); assay type: in vitro ADME; conditions: amount of substrate remaining; 1 μM, 0.25 mg/mL microsomes, 37° C., 30 minutes
Experimental: (§1) The liver microsomal stability of the compounds prepared according to Examples 1 to 171 was confirmed. Specifically, four kinds of liver microsomes (human, dog, rat, and mouse, each 0.25 mg/mL), a 0.1 M phosphate buffer solution (pH 7.4), and the compounds with a concentration of 1 μM were added, respectively. Then the mixture was cultured in advance at 37° C. for 5 minutes, and then further cultured at 37° C. for 30 minutes together with the addition of an NADPH generation system solution. Thereafter, a reaction was terminated by adding an acetonitrile solution containing an internal standard material (chloropropamide), centrifugal separation (14,000 rpm, 4° C.) was performed for 5 minutes, and then a supernatant was injected into an LC-MS/MS system. The substrate drugs were analyzed to evaluate the metabolic stability for 8 kinds of compounds.
(§2) The amount of substrate remaining through the reaction was analyzed using the Shimadzu Nexera XR system and TSQ vantage (Thermo). Kinetex XB-C18 (2.1 mm×100 mm, 2.6 μm, particle size; Phenomenex, USA) was used in an HPLC column, and (A) distilled water containing 0.1% formic acid and (B) acetonitrile containing 0.1% formic acid were used as mobile phases. Analyst software (version 1.6.3) and Xcalibur (version 1.6.1) were used for data analysis.

tau protein = target: T1, tau protein (Homo sapiens, UniProt P10636); assay: Tau protein aggregation inhibition in tau-BiFC cell model; assay type: cell-based; conditions: tau-BiFC cells treated together with Forskolin, 48 hours
T1 construct: expressed in transfected cells
Experimental: (§3) In order to select new tau protein aggregation-inhibiting materials, tau-BiFC cell models, in which it is easy to observe the formation of tau oligomers in living cells, were used. […] After 48 hours, intracellular nuclei were stained using Hoechst (treatment concentration 2 μg/mL), and BiFC fluorescence intensity was automatically quantified using Operetta (PerkinElmer) to count stained nuclei in each well from the total well plates. […] Further, the degree of cytotoxicity induced by the newly synthesized compound is also based on the 100% survival rate of the group treated with Forskolin alone, and the cytotoxicity value of the compound was calculated by the equation “number of stained nuclei in the group treated with the compound/number of stained nuclei in the group treated with Forskolin x 100”.
(§4) In order to evaluate dose-dependent tau protein aggregation inhibition effects of the compounds selected according to Experimental Example 1, the selected compounds were treated in tau-BiFC cells at concentrations of 0.03 µM, […], 0.3 μM, 1 μM, 3 μM, 10 μM, and 30 μM, respectively, together with Forskolin (treatment concentration 30 µM) as a tau protein aggregation inducing material. After 48 hours, tau protein aggregation reaction and cytotoxicity degree were analyzed by observing cell images. The IC50 and toxicity of the compounds were analyzed by nonlinear regression analysis of prism software (Graph Pad).

[2] = Liver microsomal stability (rat); assay type: in vitro ADME; conditions: amount of substrate remaining; 1 μM, 0.25 mg/mL microsomes, 37° C., 30 minutes
Experimental: as §1, §2

CYP2C9 = target: T2, CYP2C9 (Homo sapiens, UniProt P11712); assay: Inhibition of CYP coenzyme activity in human liver microsomes; assay type: in vitro ADME; conditions: compound 10 PM (so in the source); human liver microsomes 0.25 mg/mL; substrate diclofenac; 15 minutes
T2 construct: human liver microsomes (0.25 mg/mL); from tissue; host or cells: human liver microsomes
Experimental: (§5) 5 The inhibition effects of CYP coenzyme activity by the compounds prepared according to Examples 1 to 171 was confirmed. Specifically, human liver microsomes (0.25 mg/mL), a 0.1 M phosphate buffer solution (pH 7.4), substrate drug cocktails (phenacetin 50 μM, diclofenac 10 μM, S-mephenytoin 100 μM, dextromethorphan 5 μM, and midazolam 2.5 μM) of five kinds of drug metabolism enzymes, and the compounds with a concentration of 0 μM or 10 PM were added, respectively. Then the mixture was cultured in advance at 37° C. for 5 minutes, and then further cultured at 37° C. for 15 minutes together with the addition of an NADPH generation system solution. Thereafter, a reaction was terminated by adding an acetonitrile solution containing an internal standard material (terfenadine), centrifugal separation (14,000 rpm, 4° C.) was performed for 5 minutes, and then a supernatant was injected into an LC-MS/MS system. Metabolites of the substrate drugs were simultaneously analyzed to evaluate the drug metabolism inhibition ability.
(§6) Metabolites of each CYP coenzyme indicator drug generated through the reaction were analyzed using the Shimadzu Nexera XR system and TSQ vantage (Thermo). Kinetex C18 (2.1 mm×100 mm, 2.6 μm, particle size; Phenomenex, USA) was used in an HPLC column, and (A) distilled water containing 0.1% formic acid and (B) acetonitrile containing 0.1% formic acid were used as mobile phases, and the gradient program shown in Table 2 was applied.
(§7) The generated metabolites were quantified using an MRM (multiple reaction monitoring) quantification mode, and Xcalibur (version 1.6.1) was used for data analysis.

CYP2C19 = target: T3, CYP2C19 (Homo sapiens, UniProt P33261); assay: as above; assay type: in vitro ADME; conditions: compound 10 PM (so in the source); human liver microsomes 0.25 mg/mL; substrate S-mephenytoin; 15 minutes
T3 construct: human liver microsomes (0.25 mg/mL); from tissue; host or cells: human liver microsomes
Experimental: as §5, §6, §7

CYP1A2 = target: T4, CYP1A2 (Homo sapiens, UniProt P05177); assay: as above; assay type: in vitro ADME; conditions: compound 10 PM (so in the source); human liver microsomes 0.25 mg/mL; substrate phenacetin; 15 minutes
T4 construct: human liver microsomes (0.25 mg/mL); from tissue; host or cells: human liver microsomes
T4 sequence (P05177 1-516): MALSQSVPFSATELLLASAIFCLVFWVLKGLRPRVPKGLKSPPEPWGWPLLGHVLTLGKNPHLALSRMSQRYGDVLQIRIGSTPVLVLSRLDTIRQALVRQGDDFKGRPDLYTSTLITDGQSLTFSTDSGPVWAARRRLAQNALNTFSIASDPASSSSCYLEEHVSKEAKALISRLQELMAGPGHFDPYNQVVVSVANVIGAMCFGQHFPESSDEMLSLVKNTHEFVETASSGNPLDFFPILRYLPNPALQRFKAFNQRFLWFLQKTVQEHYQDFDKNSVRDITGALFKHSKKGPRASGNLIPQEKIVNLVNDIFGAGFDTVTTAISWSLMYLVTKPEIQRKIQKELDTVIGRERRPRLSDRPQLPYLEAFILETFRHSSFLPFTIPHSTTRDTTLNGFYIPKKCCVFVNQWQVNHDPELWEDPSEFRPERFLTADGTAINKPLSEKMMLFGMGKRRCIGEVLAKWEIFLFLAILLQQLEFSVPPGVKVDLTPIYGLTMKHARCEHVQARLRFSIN
Experimental: as §5, §6, §7

CYP2D6 = target: T5, CYP2D6 (Homo sapiens, UniProt P10635); assay: as above; assay type: in vitro ADME; conditions: compound 10 PM (so in the source); human liver microsomes 0.25 mg/mL; substrate dextromethorphan; 15 minutes
T5 construct: human liver microsomes (0.25 mg/mL); from tissue; host or cells: human liver microsomes
Experimental: as §5, §6, §7

[3] = Liver microsomal stability (dog); assay type: in vitro ADME; conditions: amount of substrate remaining; 1 μM, 0.25 mg/mL microsomes, 37° C., 30 minutes
Experimental: as §1, §2

CYP3A4 = target: T6, CYP3A4 (Homo sapiens, UniProt P08684); assay: Inhibition of CYP coenzyme activity in human liver microsomes; assay type: in vitro ADME; design: scale not given here; conditions: compound 10 PM (so in the source); human liver microsomes 0.25 mg/mL; substrate midazolam; 15 minutes
T6 construct: human liver microsomes (0.25 mg/mL); from tissue; host or cells: human liver microsomes
Experimental: as §5, §6, §7

[4] = Liver microsomal stability (human); assay type: in vitro ADME; conditions: amount of substrate remaining; 1 μM, 0.25 mg/mL microsomes, 37° C., 30 minutes
Experimental: as §1, §2

Tau-BiFC cells = assay: Cytotoxicity (cell survival rate) in tau-BiFC cells; conditions: group treated with Forskolin alone = 100%
Experimental: as §3, §4

T3 sequence (P33261 whole entry): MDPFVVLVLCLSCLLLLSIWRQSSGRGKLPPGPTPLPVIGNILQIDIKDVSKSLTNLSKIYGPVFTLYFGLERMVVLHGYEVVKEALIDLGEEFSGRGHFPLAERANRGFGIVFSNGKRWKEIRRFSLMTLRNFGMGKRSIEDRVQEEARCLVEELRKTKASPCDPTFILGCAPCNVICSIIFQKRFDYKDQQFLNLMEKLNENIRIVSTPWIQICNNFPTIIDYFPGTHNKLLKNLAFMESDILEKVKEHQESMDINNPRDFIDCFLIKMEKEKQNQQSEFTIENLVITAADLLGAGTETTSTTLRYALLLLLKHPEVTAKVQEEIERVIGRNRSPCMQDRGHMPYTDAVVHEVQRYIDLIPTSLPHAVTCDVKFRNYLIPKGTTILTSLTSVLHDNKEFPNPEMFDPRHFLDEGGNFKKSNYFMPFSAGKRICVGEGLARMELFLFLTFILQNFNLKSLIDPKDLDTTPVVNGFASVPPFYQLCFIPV
T5 sequence (P10635 whole entry): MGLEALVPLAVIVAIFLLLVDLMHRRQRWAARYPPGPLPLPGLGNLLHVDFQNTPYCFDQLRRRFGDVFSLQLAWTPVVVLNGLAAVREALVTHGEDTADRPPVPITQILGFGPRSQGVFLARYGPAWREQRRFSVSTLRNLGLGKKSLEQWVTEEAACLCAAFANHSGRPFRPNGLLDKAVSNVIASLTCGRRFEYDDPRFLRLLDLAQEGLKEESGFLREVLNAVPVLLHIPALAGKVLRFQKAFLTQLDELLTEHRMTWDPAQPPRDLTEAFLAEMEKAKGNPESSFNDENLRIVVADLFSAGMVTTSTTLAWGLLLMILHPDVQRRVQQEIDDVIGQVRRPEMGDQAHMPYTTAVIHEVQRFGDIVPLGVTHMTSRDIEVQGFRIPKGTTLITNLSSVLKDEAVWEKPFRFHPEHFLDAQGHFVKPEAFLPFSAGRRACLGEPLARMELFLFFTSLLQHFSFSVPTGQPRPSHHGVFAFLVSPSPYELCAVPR
T2 sequence (P11712 whole entry): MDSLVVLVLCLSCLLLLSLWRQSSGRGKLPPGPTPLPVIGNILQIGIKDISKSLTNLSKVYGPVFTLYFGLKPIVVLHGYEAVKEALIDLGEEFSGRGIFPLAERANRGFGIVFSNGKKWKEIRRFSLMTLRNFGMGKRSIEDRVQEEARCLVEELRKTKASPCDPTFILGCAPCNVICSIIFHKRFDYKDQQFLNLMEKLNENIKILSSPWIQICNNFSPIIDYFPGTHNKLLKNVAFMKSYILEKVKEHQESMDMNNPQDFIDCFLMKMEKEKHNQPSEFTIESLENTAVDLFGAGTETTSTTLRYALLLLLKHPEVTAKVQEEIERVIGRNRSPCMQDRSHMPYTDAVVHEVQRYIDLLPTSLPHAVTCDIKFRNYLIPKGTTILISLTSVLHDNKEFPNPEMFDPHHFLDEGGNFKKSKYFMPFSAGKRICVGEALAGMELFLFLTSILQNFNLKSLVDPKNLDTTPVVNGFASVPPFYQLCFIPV
T1 sequence (P10636 2-441 isoform P10636-8 limits assumed): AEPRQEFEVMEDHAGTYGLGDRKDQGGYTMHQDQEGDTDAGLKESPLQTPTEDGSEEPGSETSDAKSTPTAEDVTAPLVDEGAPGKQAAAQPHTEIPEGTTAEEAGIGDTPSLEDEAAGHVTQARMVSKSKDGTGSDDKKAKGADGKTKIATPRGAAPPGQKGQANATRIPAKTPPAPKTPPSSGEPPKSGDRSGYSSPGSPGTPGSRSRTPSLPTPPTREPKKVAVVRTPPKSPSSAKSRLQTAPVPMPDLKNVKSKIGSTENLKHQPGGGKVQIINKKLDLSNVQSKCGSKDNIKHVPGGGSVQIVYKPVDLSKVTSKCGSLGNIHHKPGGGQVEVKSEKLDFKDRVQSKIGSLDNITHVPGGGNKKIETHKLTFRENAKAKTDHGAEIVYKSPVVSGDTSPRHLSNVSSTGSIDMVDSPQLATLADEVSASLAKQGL
T6 sequence (P08684 whole entry): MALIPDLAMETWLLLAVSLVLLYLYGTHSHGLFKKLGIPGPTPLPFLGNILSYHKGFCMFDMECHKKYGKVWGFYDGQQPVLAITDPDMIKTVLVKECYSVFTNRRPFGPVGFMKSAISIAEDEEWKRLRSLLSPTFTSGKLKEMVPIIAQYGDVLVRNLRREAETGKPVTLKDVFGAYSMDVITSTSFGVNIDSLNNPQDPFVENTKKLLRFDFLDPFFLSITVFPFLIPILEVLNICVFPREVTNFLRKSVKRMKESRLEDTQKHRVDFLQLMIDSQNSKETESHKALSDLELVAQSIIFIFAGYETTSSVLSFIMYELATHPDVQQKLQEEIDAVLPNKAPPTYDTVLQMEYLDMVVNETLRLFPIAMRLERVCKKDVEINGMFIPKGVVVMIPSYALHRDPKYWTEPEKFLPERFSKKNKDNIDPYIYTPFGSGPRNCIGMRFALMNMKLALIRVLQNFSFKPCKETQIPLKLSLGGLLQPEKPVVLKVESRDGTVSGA

SMILES | liver microsomal stability, Mouse (%) [1] | IC50 (tau protein) | liver microsomal stability, Rat (%) [2] | inhibition effects of CYP coenzyme activity, CYP2C9 (CYP2C9) | inhibition effects of CYP coenzyme activity, CYP2C19 (CYP2C19) | inhibition effects of CYP coenzyme activity, CYP1A2 (CYP1A2) | inhibition effects of CYP coenzyme activity, CYP2D6 (CYP2D6) | liver microsomal stability, Dog (%) [3] | inhibition effects of CYP coenzyme activity, CYP3A4 (CYP3A4) | liver microsomal stability, Human (%) [4] | Cell survival rate (% @ 10 μM) (Tau-BiFC cells)
N#CC(C#N)=NNc1ccc(-n2cccn2)cc1 [Compound 35, (4-(1H-pyrazol-1-yl)phenyl)carbonohydrazonoyl dicyanide] | 10.7% | 1700 nM | 56.4% | 81.3 | >100 | 99.9 | >100 | 24.2% | >100 | 82.2% | 100%
Cc1cnn(-c2ccc(NN=C(C#N)C#N)cc2)c1 [Compound 36, (4-(4-methyl-1H-pyrazol-1-yl)phenyl)carbonohydrazonoyl dicyanide] | 37.9% | 53 nM | 20.1% | 60.7 | >100 | 86 | 98.6 | 60.6% | >100 | 65.9% | 99.3%
Cc1ccnc(-c2ccc(NN=C(C#N)C#N)c(F)c2)n1 [Compound 37, (2-fluoro-4-(4-methylpyrimidin-2-yl)phenyl)carbonohydrazonoyl dicyanide] | 32.7% | 1340 nM | 25.9% | 56.9 | 100 | 78.1 | >100 | 61% | >100 | 55.7% | 88.3%
COc1cc(-c2nccc(C)n2)ccc1NN=C(C#N)C#N [Compound 42, (2-methoxy-4-(4-methylpyrimidin-2-yl)phenyl)carbonohydrazonoyl dicyanide] | 47.9% | 3000 nM | 46.5% | 88.8 | 96.2 | 83.6 | >100 | 30.7% | >100 | 53.4% | 128%
Cn1cc2c(-c3ccc(NN=C(C#N)C#N)cc3)cccc2n1 [Compound 55, (4-(2-methyl-2H-indazol-4-yl)phenyl)carbonohydrazonoyl dicyanide] | 71.2% | 1000 nM | 60.8% | 59.5 | 86 | 66.9 | >100 | 85.6% | 87.6 | 70% | 120.1%
N#CC(C#N)=NNc1ccc2scnc2c1 [Compound 61, benzo[d]thiazol-5-ylcarbonohydrazonoyl dicyanide] | 33.5% | 3100 nM | 66.2% | 75.5 | 93.6 | 45.1 | >100 | 32.6% | 90.1 | 70.4% | 111.7%
Cn1ncc2ccc(NN=C(C#N)C#N)cc21 [Compound 63, (1-methyl-1H-indazol-6-yl)carbonohydrazonoyl dicyanide] | 9.5% | 740 nM | 72.1% | 84.2 | >100 | 43.3 | >100 | 82.6% | >100 | 87.4% | 111.4%
N#CC(C#N)=NNc1ccc2[nH]ncc2c1 [Compound 69, (1H-indazol-5-yl)carbonohydrazonoyl dicyanide] | 34.2% | 190 nM | 64.4% | 16.6 | 82.1 | 80.1 | >100 | 71.9% | 95.2 | 97.6% | 204.7%
